Assay results as given in PMC6749364, “Pharmacokinetics and Tissue Distribution of Alnustone in Rats after Intravenous Administration by Liquid Chromatography-Mass Spectrometry” (Molecules, 2019).

How the values were obtained:
[1] = Stability of alnustone in rat plasma and tissue homogenates (QC samples); format: in vitro ADME, rats; conditions: in % (unit assumed)
Protocol: The calibration standards were prepared by spiking a certain volume of blank plasma or blank tissue homogenates with appropriate amounts of working solutions to yield a final concentration range from 1 to 2000 ng/mL. The effective concentrations of alnustone were 1, 5, 10, 40, 160, 200, 800, 2000 ng/mL for the plasma samples and tissue homogenates samples (heart, liver, spleen, lung, kidney, brain, stomach, intestine). […]
The stability tests involved the following four conditions. The short-term stability study was examined by analyzing samples at room temperature for 4 h. The long-term stability study was performed by analyzing samples stored at −75 °C for 1 month. For the freeze-thaw stability study, the samples were analyzed after three freeze/thaw cycles (−75 °C to 25 °C). The post-preparative storage stability was assessed by analyzing the samples left in autosampler vials at 4 °C for 24 h. The stability analysis was performed using three aliquots of each QC samples at three different concentrations. The samples were considered stable if the assay values were within the acceptable limits of accuracy (±15% RE) and precision (≤15% RSD).

neuraminidase = test system: neuraminidase; set-up: method as in PMID 20014777; conditions: cited from earlier work
[2] = test system: Bel-7402 (human hepatocellular carcinoma cells); set-up: method as in earlier work; conditions: Bel-7402 cell line; cited from earlier work
[3] = Brain homogenate, QC 1600 ng/mL
[4] = Heart homogenate, QC 1600 ng/mL
[5] = Intestine homogenate, QC 1 ng/mL
[6] = Intestine homogenate, QC 5 ng/mL
[7] = Intestine homogenate, QC 100 ng/mL
[8] = Intestine homogenate, QC 1600 ng/mL
[9] = Kidney homogenate, QC 100 ng/mL
[10] = Kidney homogenate, QC 1600 ng/mL
[11] = Liver homogenate, QC 1600 ng/mL
[12] = Spleen homogenate, QC 100 ng/mL
[13] = Spleen homogenate, QC 1600 ng/mL

For O=C(/C=C/C=C/c1ccccc1)CCc1ccccc1 [alnustone, Alnustone], the “Stability: Autosampler 4 °C for 24 h” value ([1]; Brain homogenate, QC 1 ng/mL) was 109.2 ± 6.7, the “Stability: Short-Term (at Room Temperature for 4 h)” value (“Stability: Short-Term” for short) ([1]; Brain homogenate, QC 1 ng/mL) was 110.6 ± 5.8 and the “Stability: Storage at −75°C for 30 d” value ([1]; Brain homogenate, QC 1 ng/mL) was 103.8 ± 4.1. The “Stability: Three Freeze-Thraw Cycles” value ([1]; Brain homogenate, QC 1 ng/mL) was 86.5 ± 6.1, the “Stability: Autosampler 4 °C for 24 h” value ([1]; Brain homogenate, QC 5 ng/mL) was 104.9 ± 7.0 and the “Stability: Short-Term” value ([1]; Brain homogenate, QC 5 ng/mL) was 109.0± 4.4. The “Stability: Storage at −75°C for 30 d” value ([1]; Brain homogenate, QC 5 ng/mL) was 108.9 ± 3.8, the “Stability: Three Freeze-Thraw Cycles” value ([1]; Brain homogenate, QC 5 ng/mL) was 89.2 ± 4.6 and the “Stability: Autosampler 4 °C for 24 h” value ([1]; Brain homogenate, QC 100 ng/mL) was 95.4 ± 5.7. For the same compound, the “Stability: Short-Term” value ([1]; Brain homogenate, QC 100 ng/mL) was 99.3 ± 7.5, the “Stability: Storage at −75°C for 30 d” value ([1]; Brain homogenate, QC 100 ng/mL) was 90.2 ± 7.4 and the “Stability: Three Freeze-Thraw Cycles” value ([1]; Brain homogenate, QC 100 ng/mL) was 98.0 ± 8.1. The “Stability: Autosampler 4 °C for 24 h” value [1, 3] was 104.2 ± 4.9, the “Stability: Short-Term” value [1, 3] was 96.3 ± 7.4 and the “Stability: Storage at −75°C for 30 d” value [1, 3] was 112.3 ± 8.9. The “Stability: Three Freeze-Thraw Cycles” value [1, 3] was 110.2 ± 6.8, the “Stability: Autosampler 4 °C for 24 h” value ([1]; Heart homogenate, QC 100 ng/mL) was 89.0 ± 3.4 and the “Stability: Storage at −75°C for 30 d” value ([1]; Heart homogenate, QC 100 ng/mL) was 112.4 ± 4.0. For the same compound, the “Stability: Three Freeze-Thraw Cycles” value ([1]; Heart homogenate, QC 100 ng/mL) was 104.8 ± 6.6, the “Stability: Autosampler 4 °C for 24 h” value [1, 4] was 90.3 ± 5.2 and the “Stability: Short-Term” value [1, 4] was 91.8 ± 5.8. The “Stability: Storage at −75°C for 30 d” value [1, 4] was 95.6 ± 5.4, the “Stability: Three Freeze-Thraw Cycles” value [1, 4] was 95.3 ± 9.0 and the “Stability: Autosampler 4 °C for 24 h” value [1, 5] was 90.0 ± 5.7. For the same compound, the “Stability: Short-Term” value [1, 5] was 89.6 ± 8.1, the “Stability: Storage at −75°C for 30 d” value [1, 5] was 96.5 ± 5.7 and the “Stability: Three Freeze-Thraw Cycles” value [1, 5] was 113.7 ± 8.7. For the same compound, the “Stability: Autosampler 4 °C for 24 h” value [1, 6] was 90.9 ± 5.0, the “Stability: Short-Term” value [1, 6] was 95.8 ± 7.7 and the “Stability: Storage at −75°C for 30 d” value [1, 6] was 92.6 ± 3.7. For the same compound, the “Stability: Three Freeze-Thraw Cycles” value [1, 6] was 108.7 ± 9.4, the “Stability: Autosampler 4 °C for 24 h” value [1, 7] was 98.0 ± 4.9 and the “Stability: Short-Term” value [1, 7] was 95.3 ± 6.7. For the same compound, the “Stability: Storage at −75°C for 30 d” value [1, 7] was 114.4 ± 4.9, the “Stability: Three Freeze-Thraw Cycles” value [1, 7] was 96.9 ± 3.8 and the “Stability: Autosampler 4 °C for 24 h” value [1, 8] was 103.0 ± 8.4. For the same compound, the “Stability: Short-Term” value [1, 8] was 105.9 ± 7.1, the “Stability: Storage at −75°C for 30 d” value [1, 8] was 107.0 ± 4.3 and the “Stability: Three Freeze-Thraw Cycles” value [1, 8] was 113.6 ± 2.8. For the same compound, the “Stability: Autosampler 4 °C for 24 h” value ([1]; Kidney homogenate, QC 1 ng/mL) was 116.5 ± 8.0, the “Stability: Short-Term” value ([1]; Kidney homogenate, QC 1 ng/mL) was 107.8 ± 7.5 and the “Stability: Storage at −75°C for 30 d” value ([1]; Kidney homogenate, QC 1 ng/mL) was 89.8 ± 8.1. For the same compound, the “Stability: Three Freeze-Thraw Cycles” value ([1]; Kidney homogenate, QC 1 ng/mL) was 93.7 ± 7.0, the “Stability: Autosampler 4 °C for 24 h” value ([1]; Kidney homogenate, QC 5 ng/mL) was 114.1 ± 7.4 and the “Stability: Short-Term” value ([1]; Kidney homogenate, QC 5 ng/mL) was 110.7 ± 6.6. The “Stability: Storage at −75°C for 30 d” value ([1]; Kidney homogenate, QC 5 ng/mL) was 88.5 ± 6.4, the “Stability: Three Freeze-Thraw Cycles” value ([1]; Kidney homogenate, QC 5 ng/mL) was 95.7 ± 5.7 and the “Stability: Autosampler 4 °C for 24 h” value [1, 9] was 108.0 ± 5.7. For the same compound, the “Stability: Short-Term” value [1, 9] was 109.7 ± 8.3, the “Stability: Storage at −75°C for 30 d” value [1, 9] was 111.0 ± 7.5 and the “Stability: Three Freeze-Thraw Cycles” value [1, 9] was 90.9 ± 7.0. For the same compound, the “Stability: Autosampler 4 °C for 24 h” value [1, 10] was 95.9 ± 6.0, the “Stability: Short-Term” value [1, 10] was 100.7 ± 7.0 and the “Stability: Storage at −75°C for 30 d” value [1, 10] was 100.5 ± 10.6. The “Stability: Three Freeze-Thraw Cycles” value [1, 10] was 112.5 ± 5.2, the “Stability: Autosampler 4 °C for 24 h” value ([1]; Liver homogenate, QC 1 ng/mL) was 93.1 ± 5.7 and the “Stability: Short-Term” value ([1]; Liver homogenate, QC 1 ng/mL) was 98.8 ± 6.8. The “Stability: Storage at −75°C for 30 d” value ([1]; Liver homogenate, QC 1 ng/mL) was 111.5 ± 6.9, the “Stability: Three Freeze-Thraw Cycles” value ([1]; Liver homogenate, QC 1 ng/mL) was 101.5 ± 10.1 and the “Stability: Autosampler 4 °C for 24 h” value ([1]; Liver homogenate, QC 5 ng/mL) was 95.3 ± 3.2. The “Stability: Short-Term” value ([1]; Liver homogenate, QC 5 ng/mL) was 95.4 ± 5.8, the “Stability: Storage at −75°C for 30 d” value ([1]; Liver homogenate, QC 5 ng/mL) was 106.5 ± 10.1 and the “Stability: Three Freeze-Thraw Cycles” value ([1]; Liver homogenate, QC 5 ng/mL) was 98.8 ± 9.9. The “Stability: Autosampler 4 °C for 24 h” value ([1]; Liver homogenate, QC 100 ng/mL) was 101.3 ± 5.6, the “Stability: Short-Term” value ([1]; Liver homogenate, QC 100 ng/mL) was 111.0 ± 4.9 and the “Stability: Storage at −75°C for 30 d” value ([1]; Liver homogenate, QC 100 ng/mL) was 105.4 ± 7.2. The “Stability: Three Freeze-Thraw Cycles” value ([1]; Liver homogenate, QC 100 ng/mL) was 108.4 ± 7.8, the “Stability: Autosampler 4 °C for 24 h” value [1, 11] was 94.8 ± 7.7 and the “Stability: Short-Term” value [1, 11] was 106.4 ± 6.0. For the same compound, the “Stability: Storage at −75°C for 30 d” value [1, 11] was 97.7 ± 6.8, the “Stability: Three Freeze-Thraw Cycles” value [1, 11] was 98.3 ± 6.3 and the “Stability: Autosampler 4 °C for 24 h” value ([1]; Lung homogenate, QC 1 ng/mL) was 105.8 ± 7.0. For the same compound, the “Stability: Short-Term” value ([1]; Lung homogenate, QC 1 ng/mL) was 89.5 ± 7.6, the “Stability: Storage at −75°C for 30 d” value ([1]; Lung homogenate, QC 1 ng/mL) was 103.4 ± 8.7 and the “Stability: Three Freeze-Thraw Cycles” value ([1]; Lung homogenate, QC 1 ng/mL) was 108.2 ± 9.5. For the same compound, the “Stability: Autosampler 4 °C for 24 h” value ([1]; Lung homogenate, QC 5 ng/mL) was 103.4 ± 7.1, the “Stability: Short-Term” value ([1]; Lung homogenate, QC 5 ng/mL) was 92.4 ± 6.4 and the “Stability: Storage at −75°C for 30 d” value ([1]; Lung homogenate, QC 5 ng/mL) was 93.0 ± 9.6. For the same compound, the “Stability: Three Freeze-Thraw Cycles” value ([1]; Lung homogenate, QC 5 ng/mL) was 105.8 ± 8.7, the “Stability: Autosampler 4 °C for 24 h” value ([1]; Lung homogenate, QC 100 ng/mL) was 98.4 ± 5.4 and the “Stability: Short-Term” value ([1]; Lung homogenate, QC 100 ng/mL) was 106.4 ± 8.6. For the same compound, the “Stability: Storage at −75°C for 30 d” value ([1]; Lung homogenate, QC 100 ng/mL) was 101.0 ± 7.5, the “Stability: Three Freeze-Thraw Cycles” value ([1]; Lung homogenate, QC 100 ng/mL) was 94.4 ± 2.6 and the “Stability: Autosampler 4 °C for 24 h” value ([1]; Lung homogenate, QC 1600 ng/mL) was 100.6 ± 9.7. The “Stability: Short-Term” value ([1]; Lung homogenate, QC 1600 ng/mL) was 91.2 ± 6.8, the “Stability: Storage at −75°C for 30 d” value ([1]; Lung homogenate, QC 1600 ng/mL) was 92.3 ± 6.3 and the “Stability: Three Freeze-Thraw Cycles” value ([1]; Lung homogenate, QC 1600 ng/mL) was 93.8 ± 4.6. For the same compound, the “Stability: Autosampler 4 °C for 24 h” value ([1]; Spleen homogenate, QC 1 ng/mL) was 108.0 ± 6.0, the “Stability: Short-Term” value ([1]; Spleen homogenate, QC 1 ng/mL) was 108.5± 6.4 and the “Stability: Storage at −75°C for 30 d” value ([1]; Spleen homogenate, QC 1 ng/mL) was 102.3 ± 4.9. For the same compound, the “Stability: Three Freeze-Thraw Cycles” value ([1]; Spleen homogenate, QC 1 ng/mL) was 101.2 ± 7.4, the “Stability: Autosampler 4 °C for 24 h” value ([1]; Spleen homogenate, QC 5 ng/mL) was 101.8 ± 4.3 and the “Stability: Short-Term” value ([1]; Spleen homogenate, QC 5 ng/mL) was 114.7 ± 5.8. The “Stability: Storage at −75°C for 30 d” value ([1]; Spleen homogenate, QC 5 ng/mL) was 98.1 ± 3.9, the “Stability: Three Freeze-Thraw Cycles” value ([1]; Spleen homogenate, QC 5 ng/mL) was 106.2 ± 6.9 and the “Stability: Autosampler 4 °C for 24 h” value [1, 12] was 92.9 ± 6.5. For the same compound, the “Stability: Short-Term” value [1, 12] was 107.5 ± 8.9, the “Stability: Storage at −75°C for 30 d” value [1, 12] was 114.3 ± 6.6 and the “Stability: Three Freeze-Thraw Cycles” value [1, 12] was 105.3 ± 3.1. The “Stability: Autosampler 4 °C for 24 h” value [1, 13] was 102.1 ± 9.3, the “Stability: Short-Term” value [1, 13] was 104.4 ± 6.1 and the “Stability: Storage at −75°C for 30 d” value [1, 13] was 104.0 ± 3.2. For the same compound, the “Stability: Three Freeze-Thraw Cycles” value [1, 13] was 92.9 ± 7.6, the neuraminidase inhibitory activity (neuraminidase) was “showed neuraminidase inhibitory activity” and the “antitumor activity in vitro” value [2] was “significant antitumor activity”.
